Where a name gives a salt, the structure may show the parent alone.
Key:
[1] = in vitro elution of raloxifene from TECOFLEX EG-80A polyurethane implants; type: physicochemical; conditions: TECOFLEX EG-80A tubing, 88% API, 10% croscarmellose sodium, 2% stearic acid, about 250 mg raloxifene, 800 mL 0.9% saline at 37° C, weekly exchanges, HPLC, up to 20 weeks
Experimental: (§1) The follow general procedure was followed for the manufacture of API-containing implants.
(§2) Sterilization was accomplished by gamma irradiation of the implants.
The drug blend was 88% API, 10% sorption enhancer, and 2% lubricant. […] A total of about 250 mg raloxifene were loaded into the implant with 10% croscarmellose sodium and 2% stearic acid.

[2] = oral dosage form, target oral daily dose about 60 mg; cited from earlier work
[3] = in vitro elution of lidocaine from TECOFLEX EG-93A polyurethane implants; type: physicochemical; conditions: TECOFLEX EG-93A tubing, about 180 mg pure lidocaine without excipients, 300 mL 0.9% saline at 37° C, daily exchanges, up to 8 days; for release of drug from the implant (in vitro elution): HPLC
Experimental: as §1, §2
A total of about 180 mg pure (100%) lidocaine were loaded into the implant without any excipients (without any sorption enhancer or lubricant).

release of drug from the implant (in vitro elution) [1] | Structure (SMILES) | release of drug from the implant (in vitro elution) [3] | further results
No drug was released | O=C(c1ccc(OCCN2CCCCC2)cc1)c1c(-c2ccc(O)cc2)sc2cc(O)ccc12 [raloxifene hydrochloride] |  | release of drug from the implant (in vitro elution) ([1]; listed as raloxifene HCI): no drug was released; oral bioavailability [2]: ~2%
 | CCN(CC)CC(=O)Nc1c(C)cccc1C [lidocaine hydrochloride] | No drug was released | release of drug from the implant (in vitro elution) ([3]; listed as lidocaine HCl): no drug was released
 | CCN(CC)CC(=O)Nc1c(C)cccc1C [lidocaine free base] | readily released | in vitro elution rate from the implant [3]: more than 10 mg/day
readily released | O=C(c1ccc(OCCN2CCCCC2)cc1)c1c(-c2ccc(O)cc2)sc2cc(O)ccc12 [raloxifene free base, [6-hydroxy-2-(4-hydroxyphenyl)-benzothiophen-3-yl]-[4-[2-(1-piperidyl)ethoxy]phenyl]-methanone] |  | 

Source: patent US20150297509A1, “IMPLANTABLE DRUG DELIVERY COMPOSITIONS AND METHODS OF TREATMENT THEREOF” (BRAEBURN PHARMACEUTICALS BVBA SPRL, priority 2012, published 2015)
